Assay results taken from patent publication US12263248B2, “Compounds and compositions for intracellular delivery of therapeutic agents” (ModernaTX, Inc., priority 2018, dated 2025).
Marks after values point to notes of the source that are not given here.

Key:
[1] = test system: IP-10; assay: Cytokine induction in rats after intravenous administration; type: in vivo, rat; details: for IP-10: rats, 2.0 mpk, 6 hours, hEPO nanoparticle compositions; for IP-10 induction: rat, 48 hours after administration
Protocol: The expression of hEPO and cytokine induction in rats intravenously administered a nanoparticle composition at a dose of 2.0 mpk was measured at 6 h.
Table 19A summarizes the hEPO expression, IP-10 induction, liver and spleen levels, and alanine aminotransferase (ALT) and aspartate aminotransferase (AST) measured upon intravenous administration of formulations including Compounds 48, 49, and 50 to rat at 0.2 and 2 mpk and hEPO mRNA. hEPO concentrations were measured 6 hours after administration, while cytokine induction and liver and spleen levels were measured 48 hours after administration. hEPO and IP-10 concentrations are presented in pg/ml, while liver levels are provided in ng/g. ALT and AST levels are presented in international units.

[2] = Clinical chemistry and hematology in rat, 2 mpk i.v., 48 h; type: in vivo; details: intravenous, 48 h post dose
Protocol: Sample formulations of nanoparticle compositions including different lipids were administered intravenously to rat at a dose of 2 mpk. The expression of various clinical markers was evaluated at 48 h post dose and compared to that induced by administration of MC3 formulations or phosphate buffered saline (PBS).

[3] = test system: hEPO mRNA; assay: hEPO expression after intravenous administration to rats; type: in vivo, rat; details: for Lipid/MC3 hEPO conc. ratio 0.2 mpk / Lipid/MC3 hEPO conc. ratio 2 mpk: rats; for Lipid/MC3 hEPO expression: 6 hours after administration
Summary of the method: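 Rats dosed intravenously once with nanoparticle composition, 0.2 or 2.0 mpk, formulated by the standard MC3 method. Tail-vein blood sampled at 6 h or at time points from 0.25 to 48 h. hEPO measured by ELISA.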

[4] = Residual lipid levels in rat liver and spleen (UPLC-MS); type: in vivo; details: for % Lipid Remaining in liver, 48 h: 2 mpk, assuming 300 g rat and 15 g liver; for % remaining dose in liver, 48 h: intravenous, 2.0 mpk; for % dose remaining Rat liver tissue, 48 h: Sprague Dawley rat liver 48 h after 2 mg/kg bolus dose mRNA
Summary of the method: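 Rats received a single intravenous dose of lipid nanoparticle composition, and liver tissue was later collected to quantify residual lipid. Weighed tissue was homogenized in Milli-Q water (900 μL per 100 mg tissue) using an Omni probe homogenizer. 50 μL aliquots were mixed with 400 μL spiking solution, vortexed, centrifuged, and analyzed by UPLC on a C8 column with positive-mode ESI detection on a Sciex API5500 mass spectrometer.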

[5] = test system: sC5b-9; assay: Complement activation in vitro (sC5b-9 levels); type: cell-based; details: human cells contacted in vitro; for sC5b-9 levels relative to saline: in words
Protocol: Complement activation assists in the clearance of pathogens from an organism. As it is undesirable that a subject's body recognize a nanoparticle composition as a foreign invader, low complement system activation upon administration of such a composition is preferred. The complex sC5b-9 is a marker for the activation of the complement system. Thus, human cells were contacted in vitro with nanoparticle compositions according to Table 1A and were evaluated for sC5b-9 levels.

[6] = test system: hEPO mRNA; assay: hEPO expression after subcutaneous administration to mice; type: in vivo, female CD-1 mice
Protocol: The effect of the lipids of the disclosure on protein expression upon subcutaneous administration was studied. Formulations containing lipids of the disclosure and an mRNA expressing luciferase or hEPO were administered subcutaneously to female CD-1 mice at 0.5 mpk. Expression levels were obtained via whole body luminescent imaging (BLI) at 3, 6 and 24 hours after injection and expression levels in liver, spleen and at the injection site were evaluated ex vivo after 24 hours. […] See also Tables 35 and 36, and FIGS. 19 and 27.
Table 36 summarizes the hEPO expression levels using various nanoparticle compositions of the disclosure as compared to the hEPO expression level using a formulation containing MC3 or Compound 18, following subcutaneous administration, as described above.

Row | Structure (SMILES) | IP-10 [1] | hEPO expression ([3]; rat, 6 h, 2 mpk, i.v.) | Lipid/MC3 hEPO conc. ratio 0.2 mpk ([3]; intravenous, 0.2 mpk, 6 hours) | Lipid/MC3 hEPO conc. ratio 2 mpk ([3]; intravenous, 2 mpk, 6 hours) | % Lipid Remaining in liver, 48 h ([4]; rats) | % remaining dose in liver, 48 h ([4]; rats) | Fold increase in sC5b-9 levels versus saline [5] | sC5b-9 levels relative to saline [5] | Lipid/MC3 hEPO expression ([3]; 2 mpk dose to rat) | % lipid remaining in liver after 48 hours [4] | also measured
1 | CCCCCCCCCN(CCO)CCCCCCCC(=O)OC(CCCCCCCC)CCCCCCCC [Compound 3, Heptadecan-9-yl 8-((2-hydroxyethyl)(nonyl)amino)octanoate] | 542 pg/mL | 1.74e+07 pg/mL | 2.41 | 1.21 | 14% | 14.2% | – | – | – | – | Concentration Alanine aminotransferase [2]: 53.5; Concentration Aspartate aminotransferase [2]: 87.5; Concentration Lymphocytes [2]: 12051; Concentration Monocytes [2]: 2103; Concentration Neutrophils [2]: 3388.5
2 | CCCCC/C=C\C/C=C\CCCCCCCCN(CCO)CCCCCCCC(=O)OC(CCCCCCCC)CCCCCCCC [Compound 6, Heptadecan-9-yl 8-((2-hydroxyethyl)((9Z,12Z)-octadeca-9,12-dien-1-yl)amino)octanoate] | – | – | – | – | – | – | 1.39 | somewhat increase | – | – | –
3 | CCCCCCCCCOC(=O)CCCCCCCN(CCO)CCCCCCCC(=O)OC(CCCCCCCC)CCCCCCCC [Compound 18, Heptadecan-9-yl 8-((2-hydroxyethyl)(8-(nonyloxy)-8-oxooctyl)amino)octanoate] | 517.3 pg/mL | 9.96e+06 pg/mL | – | 0.81 | 0.018% | <1% | 1.28 | somewhat increase | 0.81 | 0.018% | hEPO expression 0.25 h ([3]; rat, intravenous, 0.2 mpk, 0.25 h): 20227 pg/mL; hEPO expression 0.5 h ([3]; rat, intravenous, 0.2 mpk, 0.5 h): 20743 pg/mL; hEPO expression 1 h ([3]; rat, intravenous, 0.2 mpk, 1 h): 194353 pg/mL; hEPO expression 2 h ([3]; rat, intravenous, 0.2 mpk, 2 h): 238107 pg/mL; hEPO expression 4 h ([3]; rat, intravenous, 0.2 mpk, 4 h): 514807 pg/mL; hEPO expression 8 h ([3]; rat, intravenous, 0.2 mpk, 8 h): 915320 pg/mL; hEPO expression 24 h ([3]; rat, intravenous, 0.2 mpk, 24 h): 412051 pg/mL; hEPO expression 48 h ([3]; rat, intravenous, 0.2 mpk, 48 h): 52361 pg/mL; hEPO expression Lipid/MC3 ratio, 6 hr. ([6]; 0.5 mpk, 6 hr.): 2.63; hEPO expression Lipid/MC3 ratio, AUC ([6]; 0.5 mpk, AUC): 1.88; % dose remaining Rat liver tissue, 48 h [4]: 0.02^e %
4 | CCCCCC/C=C\COC(=O)CCCCCCCN(CCO)CCCCCCCC(=O)OC(CCCCCCCC)CCCCCCCC [Compound 24, Heptadecan-9-yl (Z)-8_((2-hydroxyethyl) (8-(non-2-en-1-yloxy)-8-oxooctyl)amino)octanoate] | 323.5 pg/mL | 1.44e+07 pg/mL | 1.75 | 1.01 | 0.016% | <1% | 0.81 | slightly decrease | – | – | Concentration Alanine aminotransferase [2]: 51.5; Concentration Aspartate aminotransferase [2]: 90; Concentration Lymphocytes [2]: 14100; Concentration Monocytes [2]: 1834; Concentration Neutrophils [2]: 1790.5
5 | CCCCCCCCCOC(=O)CCCN(CCO)CCCCCCCC(=O)OC(CCCCCCCC)CCCCCCCC [Compound 26, Heptadecan-9-yl 8-((2-hydroxyethyl)(4-(nonyloxy)-4-oxobutyl)amino) octanoate] | – | – | – | 4.95 | 20% | – | – | – | 4.95 | 20% | % dose remaining Rat liver tissue, 48 h [4]: 20 ± 4.0^f %; parent amino lipid levels in the liver ([4]; Sprague Dawley rats, 48 h post dose): 20%; lipid levels in the liver after 48 hours ([4]; rats, i.v., dose response study): about 19%
6 | CCCCCCCCC(CCCCCCCC)OC(=O)CCCCCCCN(CCO)CCCCCCCC(=O)OC(CCCCCCCC)CCCCCCCC [Compound 29, Di(heptadecan-9-yl) 8,8′-((2-hydroxyethyl)azanediyl)dioctanoate] | – | – | – | – | – | – | 0.93 | slightly decrease | – | – | –
7 | CCCCCCCCC(C)OC(=O)CCCCCCCN(CCO)CCCCCCCC(=O)OC(CCCCCCCC)CCCCCCCC (stereo not drawn) [Compound 48, decan-2-yl 8-((8-(heptadecan-9-yloxy)-8-oxooctyl)(2-hydroxyethyl)amino)octanoate] | – | – | 5.39 | 3.84 | 7.22% | – | – | – | 3.84 | 11.4% | IP-10 induction ([1]; 0.2 mpk): 134 pg/mL; IP-10 induction ([1]; 2 mpk): 970 pg/mL; Lipid/MC3 hEPO expression ([3]; 0.2 mpk dose to rat): 5.39; hEPO expression ([3]; rat, intravenous, 0.2 mpk, 6 hours): 4.06e+06 pg/mL; hEPO expression ([3]; rat, intravenous, 2 mpk, 6 hours): 3.57e+07 pg/mL; Novel lipid/MC3 expression ratio, 6 hr. time point, s.c. hEPO 0.5 mpk ([6]; relative to MC3): 8.09
